The results in this text go back to patent US5498609A, “Benzoazepinyl compounds as oxytocin and vasopressin antagonists” (Otsuka Pharmaceutical Company, Limited, priority 1992, dated 1996).

One assay deals with T1, Oxytocin receptor (Rattus norvegicus, UniProt P70536).
T1 construct: from tissue; host or cells: rat uterine muscle membrane (diethylstilbestrol-treated)
T1 sequence (P70536 1-388): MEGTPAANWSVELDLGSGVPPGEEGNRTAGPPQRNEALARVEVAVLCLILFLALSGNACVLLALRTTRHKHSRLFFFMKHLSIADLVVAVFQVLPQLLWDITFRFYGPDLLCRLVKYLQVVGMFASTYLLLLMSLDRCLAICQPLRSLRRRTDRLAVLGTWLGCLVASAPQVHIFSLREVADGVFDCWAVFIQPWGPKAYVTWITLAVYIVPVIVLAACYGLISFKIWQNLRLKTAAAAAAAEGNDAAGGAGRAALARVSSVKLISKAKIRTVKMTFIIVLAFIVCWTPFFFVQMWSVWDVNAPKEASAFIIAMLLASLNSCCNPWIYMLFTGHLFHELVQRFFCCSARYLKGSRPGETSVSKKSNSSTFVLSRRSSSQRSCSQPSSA
The assay is described as follows: Oxytocin receptor binding assay ([3H]-oxytocin, rat uterine muscle membrane). To be noted: for IC50: 25° C., one hour, pH 8.0; for inhibition at 10 µM: 10^-5 M test compound, read-out: Inhibitory Rate (%) at 10^-5 M (oxytocin receptor binding assay). Here is the method: Experiment 3: Oxytocin receptor binding assay
According to the method of W. Y. Chan et al. [Endocrinology, 126, 2095-2101 (1990)], uterine muscle is taken out from a rat which has previously been injected subcutaneously with diethylstilbestrol the day before, and homogenized, which is used as a membrane preparation. The membrane preparation (0.2 mg), [^3 H]-oxytocin (100000 dpm, 10^-9 M), a test compound (10^-9 -10^-5 M) are incubated at 25° C. for one hour in 100 mM Tris-HCl buffer (pH 8.0, 250 μl) containing a 5 mM MgCl2, 1 mM MEDTA and 0.1% BSA. The mixture is filtered through the glass filter (GF/B) so as to separate the membrane preparation binding with [^3 H]-oxytocin, and then, washed twice with the buffer (5 ml). This glass filter is put into a vial and mixed with Aquasole (liquid scintillation cocktail). The amount of [^3 H]-oxytocin binding with the membrane is measured by liquid scintillation counter. The rate of the inhibitory effect of the test compound is estimated according to the following equation.
Inhibitory Rate (%)=100-[(C1 -B)/(C0 -B)]×100
C1 : The amount of [^3 H]-oxytocin binding with the membrane in the presence of a test compound (known amount)
C0 : The amount of [^3 H]-oxytocin binding with the membrane in the absence of a test compound
B: The amount of [^3 H]-oxytocin binding with the membrane in the presence of the excess amount of oxytocin (5×10^-6 M).
The results are expressed as IC50 value, which is the concentration of the test compound required to achieve the inhibitory rate in the rate of 50%.

The target of the next assay is T2, V2 receptor (Rattus norvegicus, UniProt Q00788).
T2 construct: Using rat kidney plasma membrane preparations; from tissue; host or cells: rat kidney plasma membrane
Description: biochemical. The following applies: rat kidney plasma membrane, [3H]-Arg-vasopressin, 4° C., pH 8.0, read-out: IC50 in V2 receptor binding assay. How it is done:
Experiment 2: V2 receptor binding assay
Using rat kidney plasma membrane preparations prepared according to O. Hechter's method [cf: J. Bio. Chem., 253, 3211 (1978)], the plasma membrane (100000 dpm, 4×10^-10 M) of [^3 H]-Arg-vasopressin and a test compound (0.6 mg, 10^-10 to 10^-5 M) are incubated at 4° C. for 3 hours in 100 mM Tris-HCl buffer (pH: 8.0) (250 μl) containing 5 mM MgCl2, 1 mM EDTA and 0.1% BSA. After incubation, the mixture is filtered using the glass filter (GF/F) so as to separate the membrane preparation binding with vasopressin and then washed twice with the buffer (each 5 ml). This glass filter is taken out and mixed with liquid scintillation cocktail. The amount of [^3 H]-vasopressin binding with the membrane is measured by liquid scintillation counter and the rate of the inhibitory effect of the test compound is estimated according to the following equation. [formula] C1 : The amount of [^3 H]-vasopressin binding with the membrane in the presence of the test compound (known amount)
(§1) C0 : The amount of [^3 H]-vasopressin binding with the membrane in the absence of the test compound
(§2) B1 : The amount of [^3 H]-vasopressin binding with the membrane in the presence of the excess amount of vasopressin (10^-6 M)
(§3) The results are expressed as IC50 value, which is the concentration of the test compound required to achieve the inhibitory effect in the rate of 50%.

In a further assay the target is V1 receptor (Rattus norvegicus, UniProt P30560). The assay is described as follows: biochemical. To be noted: rat liver plasma membrane, [3H]-Arg-vasopressin, 37° C., 10 minutes, pH 8.0; read-out: IC50 in V1 receptor binding assay. Here is the method: Experiment 1: V1 receptor binding assay
Using rat liver plasma membrane preparations prepared according to Ichihara's method [cf: Akira Ichihara, J. Bio. Chem., 258, 9283 (1983)], the plasma membrane (50000 dpm, 2×10^-10 M) of [^3 H]-Arg-vasopressin and a test compound (60 μg, 10^-8 to 10^-4 M) are incubated at 37° C. for 10 minutes in 100 mM Tris-HCl buffer (pH: 8.0) (250 μl) containing 5 mM MgCl2, 1 mM EDTA and 0.1% BSA. After incubation, the mixture is filtered three times using the glass filter (GF/F) so as to separate the membrane preparation binding with vasopressin and then washed with the buffer (5 ml). This glass filter is taken out and mixed with liquid scintillation cocktail. The amount of [^3 H]-vasopressin binding with the membrane is measured by liquid scintillation counter and the rate of the inhibitory effect of the test compound is estimated according to the following equation. [formula] C1 : The amount of [^3 H]-vasopressin binding with the membrane in the presence of the test compound (known amount)
as §1, §2, §3

T2 sequence (Q00788 whole entry): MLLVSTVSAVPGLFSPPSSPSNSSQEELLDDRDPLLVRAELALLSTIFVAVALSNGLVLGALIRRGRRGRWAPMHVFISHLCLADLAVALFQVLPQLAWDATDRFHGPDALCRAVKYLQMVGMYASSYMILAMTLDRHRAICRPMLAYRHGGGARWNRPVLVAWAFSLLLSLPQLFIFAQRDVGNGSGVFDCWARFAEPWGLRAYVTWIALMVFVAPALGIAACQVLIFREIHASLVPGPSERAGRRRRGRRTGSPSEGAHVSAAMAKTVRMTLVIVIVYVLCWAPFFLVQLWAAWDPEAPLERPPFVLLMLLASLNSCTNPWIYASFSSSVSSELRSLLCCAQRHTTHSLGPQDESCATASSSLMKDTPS
Sequence of V1 receptor (P30560 whole entry): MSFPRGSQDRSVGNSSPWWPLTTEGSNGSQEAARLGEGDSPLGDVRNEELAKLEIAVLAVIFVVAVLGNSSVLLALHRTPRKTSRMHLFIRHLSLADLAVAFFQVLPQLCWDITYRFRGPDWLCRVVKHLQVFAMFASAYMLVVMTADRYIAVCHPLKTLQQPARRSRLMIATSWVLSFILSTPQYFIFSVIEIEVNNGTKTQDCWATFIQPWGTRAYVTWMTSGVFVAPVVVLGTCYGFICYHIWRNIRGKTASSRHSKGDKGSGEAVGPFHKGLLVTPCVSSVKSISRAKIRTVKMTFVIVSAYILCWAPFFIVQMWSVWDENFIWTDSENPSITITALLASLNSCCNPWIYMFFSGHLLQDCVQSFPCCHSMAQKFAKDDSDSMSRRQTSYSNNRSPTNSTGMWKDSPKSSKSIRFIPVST

As to `Cc1ccccc1C(=O)Nc1ccc(C(=O)N2CCCC(OCCN(C)C)c3cc(Cl)ccc32)cn1` (stereo not drawn) [Compound of Ex. 37, 7-chloro-5-(2-dimethylaminoethoxy)-1-[6-(2-methylbenzoylamino)nicotinoyl]-2,3,4,5-tetrahydro-1H-benzazepine], the IC50 (usually the concentration needed to halve the response being measured) on Oxytocin receptor was 1140 nM; at V2 receptor it was 5 nM; on V1 receptor it was 11 nM.

With `Cc1ccccc1C(=O)Nc1ccc(C(=O)N2CCCC(CC(N)=O)c3cc(Cl)ccc32)cn1` (stereo not drawn) [Compound of Ex. 40], the half-inhibitory concentration (IC50) at Oxytocin receptor was determined as 740 nM; at V2 receptor, 9 nM; on V1 receptor, 44 nM.

Regarding `Cc1ccccc1C(=O)Nc1ccc(C(=O)N2CCCCc3cc(Cl)ccc32)cn1` [Compound of Ex. 43], the figures for the IC50 on Oxytocin receptor, at V2 receptor and on V1 receptor were 290 nM, 10 nM and 13 nM, respectively.

As to `O=C(Nc1ccc(C(=O)N2CCCCc3cc(Cl)ccc32)cn1)c1ccccc1Cl` [Compound of Ex. 44], the IC50 was determined as 307 nM on Oxytocin receptor, 11 nM at V2 receptor and 8 nM on V1 receptor.

As for `O=C(Nc1ccc(C(=O)N2CCCCc3cc(Cl)ccc32)cn1)c1ccccc1Br` [Compound of Ex. 45], the IC50 on Oxytocin receptor came out at 260 nM; on V2 receptor it was 7 nM; on V1 receptor, 5 nM.

Consider `O=C(Nc1ccc(C(=O)N2CCCCc3cc(Cl)ccc32)cn1)C1CCCCC1` [Compound of Ex. 46], for which, at Oxytocin receptor, the IC50 came to 360 nM.

With `Cc1ccccc1C(=O)Nc1ccc(C(=O)N2CCCN(C)c3cc(Cl)ccc32)cn1` [Compound of Ex. 52], the 50% inhibitory concentration (IC50) on Oxytocin receptor came out at 1600 nM; on V2 receptor, 22 nM; on V1 receptor it was 51 nM.

Consider `COC1CCCN(C(=O)c2ccc(NC(=O)c3ccccc3Cl)nc2)c2ccc(Cl)cc21` (stereo not drawn) [Compound of Ex. 72], for which, at Oxytocin receptor, the IC50 was determined as 440 nM.

On to `C=CCOC1CCCN(C(=O)c2ccc(NC(=O)c3ccccc3Br)nc2)c2ccc(Cl)cc21` (stereo not drawn) [Compound of Ex. 76], for which the IC50 was 1500 nM at Oxytocin receptor, 8 nM on V2 receptor and 27 nM on V1 receptor.

In turn, `Cc1ccccc1C(=O)Nc1ccc(C(=O)N2CCCC(NC3CC3)c3cc(Cl)ccc32)cn1` (stereo not drawn) [Compound of Ex. 77] displayed an IC50 at Oxytocin receptor of 1800 nM.

At Oxytocin receptor, `CNC1CCCN(C(=O)c2ccc(NC(=O)c3ccccc3Cl)nc2)c2ccc(Cl)cc21` (stereo not drawn) [Compound of Ex. 80] registered an IC50 of 1000 nM.

Regarding `CCOC(=O)COc1ccccc1C(=O)Nc1ccc(C(=O)N2CCCCc3cc(Cl)ccc32)cn1` [Compound of Ex. 82], on Oxytocin receptor, the IC50 is 9700 nM.

Turning to `O=C(Nc1ccc(C(=O)N2CCCCc3cc(Cl)ccc32)cn1)c1ccccc1OCCO` [Compound of Ex. 83], the IC50 at Oxytocin receptor came to 6600 nM; on V2 receptor, 430 nM; on V1 receptor, 71 nM.

In the case of `O=C(O)CCCOc1ccccc1C(=O)Nc1ccc(C(=O)N2CCCCc3cc(Cl)ccc32)cn1` [Compound of Ex. 86], at Oxytocin receptor, the inhibition at 10 µM is 17%.

Turning to `CN1CCN(C(=O)COc2ccccc2C(=O)Nc2ccc(C(=O)N3CCCCc4cc(Cl)ccc43)cn2)CC1` [Compound of Ex. 88, 7-chloro-1-{6-[2-(4-methyl-1-piperazinyl)-carbonylmethoxybenzoylamino]nicotinoyl}-2,3,4,5-tetrahydro-1H-benzazepine], the IC50 came out at 4500 nM at Oxytocin receptor, 200 nM on V2 receptor and 26 nM at V1 receptor.

On to `CN1CCN(C(=O)CCCOc2ccccc2C(=O)Nc2ccc(C(=O)N3CCCCc4cc(Cl)ccc43)cn2)CC1` [Compound of Ex. 89], for which the IC50 at Oxytocin receptor worked out at 7300 nM.

Turning to `CC(C)NCCOc1ccccc1C(=O)Nc1ccc(C(=O)N2CCCCc3cc(Cl)ccc32)cn1` [Compound of Ex. 91], on Oxytocin receptor, the inhibition at 10 µM was 38%.

For `CC(=O)NC1CCN(CCOc2ccccc2C(=O)Nc2ccc(C(=O)N3CCCCc4cc(Cl)ccc43)cn2)CC1` [Compound of Ex. 92], the inhibition at 10 µM on Oxytocin receptor worked out at 38%. The IC50 amounted to 380 nM at V2 receptor and 60 nM on V1 receptor.

With `O=C1c2ccccc2OCCN1c1ccc(C(=O)N2CCCCc3cc(Cl)ccc32)cn1` [Compound of Ex. 94, 7-chloro-1-[6-(6,7-benzo-1-oxo-4-azepin-5-on-4-yl)nicotinoyl]-2,3,4,5-tetrahydro-1H-benzazepine], the figures for the IC50 on Oxytocin receptor, at V2 receptor and at V1 receptor were 840 nM, 36 nM and 42 nM, respectively.

With `NC(=O)COc1ccccc1C(=O)Nc1ccc(C(=O)N2CCCCc3cc(Cl)ccc32)cn1` [Compound of Ex. 97], the values for the IC50 at Oxytocin receptor, on V2 receptor and on V1 receptor were 1800 nM, 160 nM and 5 nM, respectively.

As to `O=C(O)CC1CCCN(C(=O)c2ccc(NC(=O)c3ccccc3Br)nc2)c2ccc(Cl)cc21` (stereo not drawn) [Compound of Ex. 101], the results for the IC50 at Oxytocin receptor, on V2 receptor and on V1 receptor were 3500 nM, 33 nM and 490 nM, respectively.

For the compound `Cc1ccccc1C(=O)Nc1ccc(C(=O)N2CCCC(CC(=O)N3CCCCC3)c3cc(Cl)ccc32)cn1` (stereo not drawn) [Compound of Ex. 104], the IC50 at Oxytocin receptor was 510 nM; at V2 receptor it was 24 nM; on V1 receptor, 38 nM.

At Oxytocin receptor, `CN1CCN(C(=O)CC2CCCN(C(=O)c3ccc(NC(=O)c4ccccc4Cl)nc3)c3ccc(Cl)cc32)CC1` (stereo not drawn) [Compound of Ex. 107] registered an IC50 of 410 nM.

In the case of `CCNC(=O)CC1CCCN(C(=O)c2ccc(NC(=O)c3ccccc3Cl)nc2)c2ccc(Cl)cc21` (stereo not drawn) [Compound of Ex. 112], the IC50 at Oxytocin receptor turned out to be 280 nM; on V2 receptor, 3 nM; on V1 receptor it was 9 nM.

For the compound `O=C(Nc1ccc(C(=O)N2CCCC(CC(=O)N3CCCC3)c3cc(Cl)ccc32)cn1)c1ccccc1Cl` (stereo not drawn) [Compound of Ex. 114], the IC50 came to 320 nM at Oxytocin receptor, 3 nM on V2 receptor and 11 nM on V1 receptor.

Consider `CCN(CC)CCN(C)C(=O)CC1CCCN(C(=O)c2ccc(NC(=O)c3ccccc3Br)nc2)c2ccc(Cl)cc21` (stereo not drawn) [Compound of Ex. 120], for which, at Oxytocin receptor, the IC50 worked out at 350 nM.

Turning to `O=C(Nc1ccc(C(=O)N2CCCC(O)(CO)c3cc(Cl)ccc32)cn1)c1ccccc1Cl` (stereo not drawn) [Compound of Ex. 145], the IC50 on Oxytocin receptor came out at 1200 nM.

As to `O=C(Nc1ccc(C(=O)N2CCCC(OCCNC3CCCC3)c3cc(Cl)ccc32)cn1)c1ccccc1Cl` (stereo not drawn) [Compound of Ex. 187], the results for the IC50 at V2 receptor and on V1 receptor were 8 nM and 7.8 nM, respectively.

`Cc1ccccc1C(=O)Nc1ccc(C(=O)N2CCCC(OC(=O)CN(C)C)c3cc(Cl)ccc32)cn1` (stereo not drawn) [Compound of Ex. 189]: the half-inhibitory concentration (IC50) at V2 receptor came to 12 nM; on V1 receptor, 34 nM.
